# Legend:
# [1] = tested on: heart; settings: cited from earlier work
# [2] = tested on: isolated rabbit hearts; assay: Dose-response of APNEA on infarct size in isolated rabbit hearts, Example 4 (Table A)
# Experimental: New Zealand white rabbits of either sex, between 1.4-2.4 kg, were anesthetized with intravenous sodium pentobarbital (30 mg/kg). The neck was opened and a tracheotomy was performed. The rabbits were ventilated with 100% oxygen via a positive pressure respirator (MD industries, Mobile, Ala.). Ventilation rate was 30-35 breaths per minute, and tidal volume was approximately 15 ml. A left thoracotomy was performed in the fourth intercostal space and pericardium was opened to expose the heart. A 2-0 silk suture with an RB taper needle was passed around a branch of the left coronary artery, and the end of the silk were threaded through a small vinyl tube to form a snare. The heads were quickly excised and mounted on a Langendorff apparatus and perfused at constant pressure with Krebs buffer containing (in mM) 118.5 NaCl, 4.7 KCl, 1.2 MgSO4, 1.2 K2 PO4, 24.3 NaHCO3, 2.5 CaCl2 and 10 glucose. […] The temperature of the perfusate was maintained at 37° C. The perfusion pressure was kept at 75 mm Hg. Pacing electrodes were placed on the right atrium and all hearts were paced at 200 beats/minute with pulses of 5 volts and 4 msec duration to keep the heart rate constant. A fluid-filled latex balloon connected to a transducer via PE240 tubing was inserted into the left ventricle. Balloon volume was adjusted to set the left ventricular diastolic pressure at 10 mm Hg at the beginning of the experiment. Total coronary artery flow was measured by timed collection of buffer from the chamber into a graduated cylinder. Regional ischemia was effected by pulling the snare tight and clamping the tube with a hemostat. Global ischemia was performed by clamping the inflow tubing of the Langendorff apparatus. Reperfusion was achieved by releasing the restriction. All hearts were allowed to equilibrate for 20 minutes before the experiments were started. Heart rate (HR), coronary flow (CF) and left ventricular developed pressure (LVDP) were recorded at the point just before and at the end of each treatment with the pacing momentarily turned off.
# For the group to be exposed to ischemia, the silk suture under the coronary branch was tightly tied to occlude the artery at the end of each experiment, and a 0.5% suspension of fluorescent particles (1-10 um diameter from Duke Scientific Corp., Palo Alto, Calif.) were infused into the perfusate to mark the risk zone as the non-fluorescent tissue. The hearts were removed from the Langendorff apparatus, weighed and then frozen. The hearts were cut into 2 mm transverse slices. The slices were thawed and incubated in 1% triphenyl tetrazolium chloride (TTC) in pH 7.4 buffer for 20 minutes at 37° C. TTC reacts with NADH and dehydrogenase enzymes and stains all tissue still having them to a deep red color. […] After staining, the area of infarcted tissue (TTC negative tissue) and the risk zone (area lacking fluorescence under ultraviolet light) in each slice were traced. The area of infarct and risk zone were determined by planimetry of the tracing. The volume of infarcted myocardium and myocardium at risk was then calculated by multiplying the planimetered areas by the slice thickness.
# In this study, applicants examined the effects of varying the dosage of APNEA on myocardial infarct size in Langendorff buffer-perfused rabbit hearts subject to 30 minutes of regional ischemia and 2 hours reperfusion. The methods utilized in this example are identical to those described in Example 1.
# Six groups of hearts were studied: control untreated hearts (n=10); APNEA 0.5 nM (n=6); APNEA 5 nM (n=6); APNEA 50 nM (n=6); APNEA 500 nM (n=6); and APNEA 500 nM+DPCPX 200 nM.(n=6) In all cases, APNEA (0.5-500 nM) was infused for 5 minutes, beginning 15 minutes prior to 30 minutes of ischemia. The regional ischemia was produced by occlusion of the coronary artery, followed by 120 minutes of reperfusion.
# [3] = tested on: isolated rabbit hearts; assay: Hemodynamic effects in non-ischemic, unpaced isolated rabbit hearts, Example 4; settings: APNEA 500 nM
# Experimental: In an additional group of 3 hearts that were not made ischemic, 500 nM APNEA was infused for 1 minute. This group of hearts was not paced to control heart rate, and the effects of APNEA on spontaneous heart rate and coronary flow were measured to determine the hemodynamic effects of APNEA.
# [4] = tested on: A3 adenosine receptor (R226); settings: cited from earlier work
# [5] = tested on: intact rabbit; assay: Bradycardia and mean arterial pressure in the anesthetized rabbit, Example 2; settings: DPCPX 0.5 mg/kg IV
# [6] = tested on: intact, blood perfused rabbit heart; assay: Infarct size in the intact anesthetized rabbit, 30 min ischemia and reperfusion, Example 2
# Experimental: In this study, the effect of the adenosine receptor agonist, I-APNEA, on infarct size in the anesthetized rabbit was compared to the protection observed with ischemic preconditioning (PC).
# New Zealand White rabbits (1.5-2.5 kg) were anaesthetized with pentobarbital sodium (40 mg/kg) administered via a catheter in a marginal ear vein. The animals were intubated with a pediatric cuffed endotracheal tube and ventilated with room air using a positive pressure respirator (Harvard Apparatus, Natick, Mass.). The heart was exposed in situ via an incision between the left 4th and 5th ribs, and a branch of the left coronary artery was isolated, using a 3-0 silk suture on RB-taper needle, for later ligation to induce 30 minutes of ischemia followed by 180 minutes of reperfusion. A catheter inserted into a femoral vein was used for administration of fluids and drugs. Infarct size was measured using the method described in the section entitled "Measurement of Infarct Size and Risk Area" in Example 1.
# All animals received 30 minutes of regional ischemia, induced by tightening the suture placed around the coronary artery. Following the 30 minutes of ischemia, the suture was loosened, and reperfusion was allowed for the ensuing 180 minutes. Control animals received only the 30 minutes of ischemia and 180 minutes of reperfusion (n=9). Ischemic preconditioning (PC) was induced by 5 minutes of occlusion of the coronary artery followed by 10 minutes of reperfusion before the 30 minutes of occlusion (n=7). In a separate group of rabbits, I-APNEA was delivered intravenously as a slow bolus injection (0.25 mg/kg), beginning 15 minutes prior to the 30 minutes occlusion (n=8). In two additional groups of rabbits, the effects of the A1-selective adenosine receptor blocker, DPCPX, were tested against the effects of PC (n=6) and I-APNEA (n=8). […] At the end of 120 minutes of reperfusion, all animals were killed by an overdose of pentobarbital, and risk area and infarct size were measured.
smiles,measurement,setting,value
"Nc1ncnc2c1ncn2[C@@H]1O[C@H](CO)[C@@H](O)[C@H]1O [ADO, Adenosine]",Sensation of anginal pain,[1]; in vivo,mediator of the sensation of anginal pain
same,Hypotension,[1]; intravenous injection at doses required for ischemic preconditioning,too much hypotension
"Nc1ccc(CCNc2ncnc3c2ncn3[C@@H]2O[C@H](CO)[C@@H](O)[C@H]2O)cc1 [APNEA, N^6-(2-(4-aminophenyl)ethyl) adenosine]",Effect on infarct size compared to untreated control,[2]; APNEA 0.5 nM,no effect on infarct size
same,Infarct Area,[2]; APNEA 5 nM,14 ± 3 % of Risk
same,Infarct Area,[2]; APNEA 50 nM,14 ± 3 % of Risk
same,Infarct Area,[2]; APNEA 500 nM,8 ± 1 % of Risk
same,Infarct Area,[2]; APNEA 500 nM + DPCPX 200 nM,15 ± 5 % of Risk
same,Effect on infarct size,"[2]; APNEA 5, 50, and 500 nM",reduced infarct size
same,Infarct Area,"[2]; APNEA .5 nM, control 24 ± 1",22 ± 5 % of Risk
same,Coronary flow after APNEA,"[3]; 1 minute, before 50±9, 3 hearts",58 ± 6 mL/min
same,Heart rate after APNEA,"[3]; 1 minute, before 178±7, 3 hearts",169±3 beats/min
same,Effect on heart rate or coronary flow,[3]; non-ischemic hearts,no effect on heart rate or coronary flow
"CCCn1c(=O)c2[nH]c(C3CCCC3)nc2n(CCC)c1=O [DPCPX, 8-cyclopentyl-1,3-dipropylxanthine]",Blockade of APNEA's infarct size reduction,[2]; DPCPX 200 nM + APNEA 500 nM,not blocked
same,Binding to R226,[4],not to bind
same,Effect on bradycardia associated with activation of the A1 adenosine receptor,[5],abolish
same,Effect on fall in mean arterial pressure with I-APNEA or R-PIA,"[5]; I-APNEA 0.25 mg/kg or R-PIA 1 mg/kg, iv",attenuated
same,Infarct size,[6]; DPCPX 0.5 mg/kg IV + I-APNEA 0.25 mg/kg,28±8.0%
same,Infarct size,[6]; DPCPX 0.5 mg/kg IV + PC,7±1.8%

# — patent US5573772A, “Methods for protecting tissues and organs from ischemic damage” (priority 1994, dated 1996)
